{
  "source": "patent US7129213B2",
  "about": "“Tripeptides and tripeptide derivatives for the treatment of neurodegenerative diseases” (Neurotell AG, priority 2002, dated 2006)",
  "key": {"[1]": {"test_system": "rats pretreated with orally administered dexamethasone", "assay": "Dexamethasone model, sound avoidance conditioning", "assay_type": "in vivo, rat", "experimental": "(§1) 20 rats were orally administered 50 mg/kg/day of dexamethasone over a period of 21 days. At Day 19, the animals were chloralized (360 mg/kg), and a catheter was placed into the carotid artery as described above. At Day 21, the animals were randomly divided into two groups: • one group of 10 rats received an intracarotid injection of 1 ml/kg/day of normal saline for a period of 10 days (controls). • one group of 10 rats received 20 mg/kg/day of HCl-Gly-Phe-PrONH2 dissolved in normal saline for a period of 10 days. The injections were given at 9.00 a.m.\nDuring the last five days of treatment, the rats were placed under the common learning conditions of the three models between 10.00 a.m. and 11.00 a.m. (see below).\n(§2) During the last five days of treatment, at 10.00 a.m. (1 hour after the administration of HCl-Gly-Phe-ProNH2), the animals were placed into a learning cage for sound avoidance conditioning (Conditioning avoidance response). The animals learned to climb a pole first to escape from and then to avoid an electric shock. This method was standardized and quantified in our laboratory (see Le Poncin M., Lafitte J. C., Rapin J. R., Sound Avoidance Conditioning and a Mathematical approach to the description of acquisition performance, Math. Biosciences 59 (1982) 242–268).\n(§3) For a period of five days, the animals were placed everyday under these learning conditions for a total of ten tests a day. Results are expressed as percentage of adequate responses, and the kinetics of the responses is represented by a multi-exponential maximum curve.\n(§4) The curve maximum represents the learning capacities. The slope of the curve evaluates the learning speed. The area under the curve (AUC) represents a good evaluation of all conditioning parameters. The maximum value of the area under the curve is 500, if the animals show 100% adequate responses as early as Day 0. In fact, an average area under the curve is calculated per day, what amounts to a maximum value of 100. In the absolute control animals, this average area under the curve is equal to 40+/−4."}, "[2]": {"test_system": "type II glucocorticoid receptors in the hippocampus", "assay": "Dexamethasone model, determination of the corticoid receptors", "assay_type": "in vivo, rat", "conditions": "rats pretreated by dexamethasone, 20 mg/kg/day 10 days", "experimental": "as §1\nAfter the last learning session at 11.00 a.m., the rats were sacrificed by means of decapitation, and the hippocampi were quickly removed and put on a plate cooled to 0° C. The number of glucocorticoid receptors was determined by a binding method using a labeled corticoid and a specific inhibitor to the binding of the corticoid to the receptor (here a total agonist). The protein content was measured by Lowry's method.\nThe hippocampi of each rat were homogenized in 2 ml of sodium EDTA Glycerol molybdate buffer. […] An aliquot of the supernatant was diluted in distilled water, and the protein content was measured by Lowry's method. […]\nAfter one night of incubation at 4° C., charcoal/dextran was added to absorb […] dexamethasone. After centrifugation, the radioactivity of the supernatant was measured by liquid scintillation. […]"}, "[3]": {"test_system": "rat treated by Gp120 as intracerebroventricular injection", "assay": "Gp120 model, sound avoidance conditioning", "assay_type": "in vivo", "conditions": "for AUC (average area under the learning curve per day) / percentage of adequate responses D0 / percentage of adequate responses D3 / percentage of adequate responses D4: Gp120 ICV; for percentage of adequate responses D0: learning day D0; for percentage of adequate responses D3: learning day D3; for percentage of adequate responses D4: learning day D4", "experimental": "Day 0. The animals were slightly anesthetized by ether, an incision was made into the skin of the skull, and the skull was pierced by means of a dental burr. A metal needle was stereotaxically directed to the lateral ventricle, and then fixed by means of dental cement. Every day of the experiment, the patency of the needle was controlled.\nDay 3. Three days after introducing the needle (recovery from the postoperative shock) the animals received an intra-ventricular injection of 10 nM/kg/day of Gp120 (dissolved in normal saline) in a volume of 20 μl. This administration was repeated daily for a period of five days.\nDay 18. Ten days after the last administration of Gp120, the rats were chloralized (360 mg/kg). A permanent floating catheter was retrogradely introduced into the common carotid artery. This catheter left again on the top of the skull, where it was fixed.\n(§5) Day 21. Three days later (recovery from the postoperative shock), the 30 rats were randomly divided into three group of 10 animals each: • the first group of 10 rats received an intracarotid injection of 1 ml/kg/day of normal saline for a period of 10 days. • the second group of 10 rats received 10 mg/kg/day of HCl-Gly-Phe-ProNH2 (dissolved in normal saline) for a period of 10 days. • the third group received 20 mg/kg/day of HCl-Gly-Phe-ProNH2 under the same conditions. The injections were given between 9.00 and 9.30 a.m.\nDay 26 to 30. The animals of all three groups were placed under the common learning conditions of the entire protocol. The learning sessions took place between 10.00 a.m. and 11.00 a.m.\nas §2, §3, §4"}, "hippocampal neurons": {"test_system": "hippocampal neurons", "assay": "Gp120 model, neuronal count", "assay_type": "in vivo, rat", "conditions": "CAIII layers, after ICV Gp120; 10 mg/kg/day", "experimental": "as §5\nDay 30. After the last learning session, the rats were sacrificed by means of decapitation, the brain was rapidly removed and frozen at […] in liquid nitrogen vapor. Brain sections were made by Cryocut at −20° C.\nThe sections are defrosted and stained with neutral red. After fixation, the number of neurons on one slice of the hippocampus was measured. The method is standardized by counting the neurons on the same slice. An index of the number of neurons compared to a control rat allows for a more reliable quantification than the simple counting.\nThe neurons are counted in the CAIII layers of the hippocampus. […] By definition, the value found in the control animals is 100 with a maximum variation of 5%."}, "[4]": {"conditions": "PAMPA", "description": "The Parallel Artificial Membrane Permeation Assay system (PAMPA) is a simple and fast method for the prediction of gastrointestinal drug absorption. Drug permeation of biological cell layers is mainly related to passive diffusion processes. The PAMPA method measures the permeation of potential new drugs across an artificial membrane by passive diffusion and allows a classification into low, medium and high absorbers.\nThe artificial membrane was built up by pipetting a solution of lecithine in organic solvent on a supporting filter material in 96-well plates. For all test compounds, stock solutions of 5 mM were prepared in ethanol. They were then diluted in Tris-buffer (0.05 M, pH 7,4) to a final concentration of 500 μM. Permeation rates of all test compounds were measured in triplicate or quadruplicate. Diffusion time across the artificial membrane was 16 h. For all compounds reference values without phospholipid layer were individually determined. Concentrations in the acceptor compartments were measured by UV difference spectroscopy using a microtiter plate reader Spectramax Plus^384 from Molecular Devices. For each compound the λmax values were determined in a previous run and measurements were performed at this wavelength. The permeation rates are expressed as flux rates, which are calculated according to the following formula: flux (%)=OD (test well)/OD (control well)×100. […] Lucifer Yellow, a non-permeating dye, has been applied to each well postexperimentally and the concentration of the marker measured in a Wallac Victor^2 1420 Multilabel Counter. Wells, in which the concentration of Lucifer Yellow exceeded 1% of the amount detected in the control wells (without artificial membrane) were discarded."}},
  "note": "Structures can show the parent of a compound that is named as a salt. Where a SMILES comes first, the peptide text is derived from it.",
  "data": [
    {"smiles": "NCC(=O)N[C@@H](Cc1ccccc1)C(=O)N1CCC[C@H]1C(N)=O", "note": "[HCl-Gly-Phe-ProNH2, glycyl-L-phenylalanyl-L-prolineamide] (H-Gly-Phe-Pro-NH2)", "values": [
      {"measurement": "percentage of adequate responses D0", "setting": "[1]; dexamethasone 50 mg/kg/day oral 21 days, 20 mg/kg/day 10 days, learning day D0", "value": 0, "unit": "%"},
      {"measurement": "effect on learning capacities", "setting": "[1]; dexamethasone model", "value": "partially restores the learning capacities"},
      {"measurement": "AUC (average area under the learning curve per day)", "setting": "[1]; dexamethasone model, 20 mg/kg/day 10 days", "value": "**35.0 +/− 3.1"},
      {"measurement": "percentage of adequate responses D1", "setting": "[1]; dexamethasone model, 20 mg/kg/day 10 days, learning day D1", "value": "7 +/− 2%"},
      {"measurement": "percentage of adequate responses D2", "setting": "[1]; dexamethasone model, 20 mg/kg/day 10 days, learning day D2", "value": "**29 +/− 5%"},
      {"measurement": "percentage of adequate responses D3", "setting": "[1]; dexamethasone model, 20 mg/kg/day 10 days, learning day D3", "value": "**57 +/− 4%"},
      {"measurement": "percentage of adequate responses D4", "setting": "[1]; dexamethasone model, 20 mg/kg/day 10 days, learning day D4", "value": "**75 +/− 3%"},
      {"measurement": "type II glucocorticoid receptors in the hippocampus", "setting": "[2]", "value": "**73 +/− 4 femtomols/mg of proteins"},
      {"measurement": "type II glucocorticoid receptors in the hippocampus", "setting": "[2]; listed as HCL-GLY-PHE-PRONH2", "value": "reduces the down regulation of the glucocorticoid receptors"},
      {"measurement": "AUC (average area under the learning curve per day)", "setting": "[3]; 10 mg/kg/day 10 days", "value": "**23.8 +/− 4.1"},
      {"measurement": "percentage of adequate responses D0", "setting": "[3]; 10 mg/kg/day 10 days", "value": 0, "unit": "%"},
      {"measurement": "percentage of adequate responses D3", "setting": "[3]; 10 mg/kg/day 10 days", "value": "**35 +/− 4%"},
      {"measurement": "percentage of adequate responses D4", "setting": "[3]; 10 mg/kg/day 10 days", "value": "**55 +/− 7%"},
      {"measurement": "AUC (average area under the learning curve per day)", "setting": "[3]; 20 mg/kg/day 10 days", "value": "**29.6 +/− 3.0"},
      {"measurement": "percentage of adequate responses D0", "setting": "[3]; 20 mg/kg/day 10 days", "value": 0, "unit": "%"},
      {"measurement": "percentage of adequate responses D3", "setting": "[3]; 20 mg/kg/day 10 days", "value": "**48 +/− 5%"},
      {"measurement": "percentage of adequate responses D4", "setting": "[3]; 20 mg/kg/day 10 days", "value": "**70 +/− 5%"},
      {"measurement": "effect on learning parameters", "setting": "[3]; Gp120 model, 10 and 20 mg/kg", "value": "restores the capacities of the animal depending on the dose"},
      {"measurement": "Counting of the hippocampal neurons (index, control animals = 100)", "setting": "hippocampal neurons", "value": "46 +/− 4"},
      {"measurement": "PAMPA classification, predicted absorption after peroral application", "setting": "[4]", "value": "weakly absorbed"}
    ]}
  ]
}
